Laboratory results: patent publication US8278295B2, “Amino-heterocyclic compounds” (Pfizer Inc., priority 2009, dated 2012)

Biological target: human recombinant PDE9 enzyme (Homo sapiens, UniProt O76083)
Experiment: PDE9 IC50, 96-well assay (Phosphodiesterase SPA)
Assay type: biochemical
Procedure: PDE9 IC50, 96-well assay: The assay was performed using the Phosphodiesterase Scintillation Proximity (SPA) assay (GE Healthcare Life Sciences). […] The human recombinant PDE9 enzyme was generated in SF-9 cells, the cell pellets were sonicated in buffer (20 mM Tris, 2 mM benzamidine, 1 mM EDTA, 250 mM sucrose, 100 μM PMSF, pH 7.5 with HCl), centrifuged at 40,000×g for 20 min at 4° C. The supernatants were stored at −80° C. […] Test compounds were dissolved in DMSO, diluted in DI H2O and serially diluted in 20% DMSO/80% H2O, for a final concentration of 2% DMSO. For the assay the PDE9 was diluted with assay buffer such that 20% or less of the substrate was hydrolyzed to 5′GMP. Each assay well contained 10 μL of test compound or solvent, 40 μl of [^3H]cGMP and 50 μl of enzyme, background was determined by a high concentration of a PDE inhibitor. The assay was initiated with the addition of the enzyme and carried out at room temperature for 30 min. […] The plates were sealed, vortexed, allowed to set for >300 min, then counted in a Wallac TriLux MicroBeta LSC.

human recombinant PDE9 enzyme, sequence (O76083 whole entry): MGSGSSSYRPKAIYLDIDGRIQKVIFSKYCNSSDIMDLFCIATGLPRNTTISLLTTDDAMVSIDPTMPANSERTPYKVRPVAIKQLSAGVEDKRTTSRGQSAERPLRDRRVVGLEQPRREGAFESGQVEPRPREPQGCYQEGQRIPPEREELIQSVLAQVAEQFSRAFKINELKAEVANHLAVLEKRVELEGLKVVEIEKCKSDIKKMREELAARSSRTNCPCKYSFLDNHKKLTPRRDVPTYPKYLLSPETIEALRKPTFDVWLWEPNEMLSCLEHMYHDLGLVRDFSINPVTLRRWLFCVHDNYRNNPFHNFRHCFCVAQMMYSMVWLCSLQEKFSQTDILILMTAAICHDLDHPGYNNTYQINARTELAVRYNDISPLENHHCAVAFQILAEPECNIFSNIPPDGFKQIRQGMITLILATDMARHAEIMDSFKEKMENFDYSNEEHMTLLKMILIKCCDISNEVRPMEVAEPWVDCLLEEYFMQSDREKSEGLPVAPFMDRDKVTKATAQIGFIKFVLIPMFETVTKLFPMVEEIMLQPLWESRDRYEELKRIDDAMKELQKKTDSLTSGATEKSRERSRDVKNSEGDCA

## C[C@H](c1nc2c(cnn2C2CCCC2)c(=O)[nH]1)N1CC(Oc2ncccn2)C1 [Example 13, 1-Cyclopentyl-6-{(1R)-1-[3-(pyrimidin-2-yloxy)azetidin-1-yl]ethyl}-1,5-dihydro-4H-pyrazolo[3,4-d]pyrimidin-4-one]
  IC50: 9.49 nM
